Test results as given in patent US8907080B2, “Process for imparting water solubility or water dispersibility to hydrophobic cluster compound” (Daiso Co., Ltd., priority 2009, dated 2014).

Key:
[1] = Water solubilization of m-carborane by high speed vibration milling; type: physicochemical
Method: m-carborane was mixed with AQUA β (DAISO Co., Ltd.) or sizofuran (SPG) (Mitsui Sugar Co., Ltd.) in the predetermined amounts shown in Table 3 below. The mixture was placed with an agate milling ball in an agate milling jar, and high speed milling was performed with a mixer mill (MM200, Retsch Co., Ltd.) at 25 Hz for 25 minutes. Next, 10,000 parts by weight of water was added to 1 part by weight of the mixture, and the mixture was stirred with a magnetic stirrer at room temperature for two days and further agitated with a vortex mixer for 2 hours. Centrifugation (25° C., 14,000 rpm, 20 minutes) was performed, and the supernatant was filtrated through a 0.45 μm membrane filter. The boron concentration of the filtrate was measured with an ICP atomic emission spectrometer for evaluation of the degree of water solubility.

[2] = Solubilization of single-walled carbon nanotube; type: physicochemical; details: in water; estimated from absorbance at 500 nm
Method: Preliminary dispersion was performed by dispersing 1.0 mg of a single-walled carbon nanotube (SWNT) (Carbon Nanotechnology, Inc.) in 0.5 mL of DMSO, and performing ultrasonic irradiation. An amount of 1.0 mL of AQUA β (DAISO Co., Ltd.) in a DMSO solution (2.0 mg/mL) was added and ultrasonic irradiation was further performed for 1 hour. The obtained dispersion was added to 1.5 mL of distilled water. To the dispersion, 35 mL of distilled water was further added and the solution was allowed to stand for one day to renature the AQUA β. It was observed by visual inspection that the solution was uniform at that point. Centrifugation (8,000 rpm, 60 minutes) was performed to recover the complex as a precipitate, the supernatant was removed, and the precipitate was redispersed in distilled water. This procedure was repeated 3 times for removal of uncombined polysaccharides and replacement of the solvent with water. Thus a solution in which the SWNT was dispersed in 5 mL of distilled water was obtained.
From the absorbance at 500 nm (Abs500=0.575), the concentration of the dissolved SWNT is estimated at […]. […] The improvement in the dispersibility seems to be attributed to the fact that AQUA β has a higher proportion of side chains than sizofuran.

Substance | Boron concentration relative to solution prepared using sizofuran [1] | Concentration of the dissolved SWNT [2]
β-1,3-1,6-D-glucan [AQUA β] | ≥ 3 times | 
sizofiran |  | 2500 µg/mL
